Data on 24 compounds can be found in US5945440A, “Indolocarbazole imides and the use thereof” (priority 1992, dated 1999).

Where two headings read alike, the source gives them in different places.

Experiment [1] has as its target protein kinase C. Put plainly: inhibition of protein kinase C, enzyme test. It counts as biochemical. The settings on record: read-out: inhibition of the protein kinases, C-kinase IC50. The procedure: In order to ascertain whether it is a question of a selective inhibition of MLC kinase, the compounds were also investigated in other enzyme tests for protein kinase, including tests for protein kinase C. The results from the PKC test are also given in the following Table I. Furthermore, the Table contains selectivity factors which were calculated by the determination of the ratios of the IC50 values.

Experiment [2] addresses T1, MLC kinase (myosin light-chain kinase) (Gallus gallus, UniProt P11799).
T1 construct: MLC kinase was purified from chicken stomach; from tissue; host or cells: chicken stomach (gizzard smooth muscle)
Kind of experiment: inhibition of MLC kinase, in vitro enzyme test (32P phosphate incorporation). It counts as biochemical, chicken (stomach). The settings on record: for ratio of IC50 C-kinase/IC50 MLC-kinase: selectivity factor calculated from the IC50 values.
Experimental: Inhibition of the enzyme MLC kinase (EC 3.6.1.3; kinase of the light myosin chain; myosin light-chain kinase).
The inhibition of MLC kinase was measured in an in vitro enzyme test.
The reaction was initiated by the addition of 1 nM MLC kinase. After incubation for 20 minutes at 30° C., the reaction was stopped with TCA and the samples then filtered off. The phosphate incorporation took place by means of Cerenkov counting of the filter.

Setting [3] is: 1 nM MLC kinase, 250 μM ATP, pH 7.2, 20 minutes at 30° C., read-out: inhibition of the protein kinases, MLC-kinase IC50.

T1 sequence (P11799 935-1906): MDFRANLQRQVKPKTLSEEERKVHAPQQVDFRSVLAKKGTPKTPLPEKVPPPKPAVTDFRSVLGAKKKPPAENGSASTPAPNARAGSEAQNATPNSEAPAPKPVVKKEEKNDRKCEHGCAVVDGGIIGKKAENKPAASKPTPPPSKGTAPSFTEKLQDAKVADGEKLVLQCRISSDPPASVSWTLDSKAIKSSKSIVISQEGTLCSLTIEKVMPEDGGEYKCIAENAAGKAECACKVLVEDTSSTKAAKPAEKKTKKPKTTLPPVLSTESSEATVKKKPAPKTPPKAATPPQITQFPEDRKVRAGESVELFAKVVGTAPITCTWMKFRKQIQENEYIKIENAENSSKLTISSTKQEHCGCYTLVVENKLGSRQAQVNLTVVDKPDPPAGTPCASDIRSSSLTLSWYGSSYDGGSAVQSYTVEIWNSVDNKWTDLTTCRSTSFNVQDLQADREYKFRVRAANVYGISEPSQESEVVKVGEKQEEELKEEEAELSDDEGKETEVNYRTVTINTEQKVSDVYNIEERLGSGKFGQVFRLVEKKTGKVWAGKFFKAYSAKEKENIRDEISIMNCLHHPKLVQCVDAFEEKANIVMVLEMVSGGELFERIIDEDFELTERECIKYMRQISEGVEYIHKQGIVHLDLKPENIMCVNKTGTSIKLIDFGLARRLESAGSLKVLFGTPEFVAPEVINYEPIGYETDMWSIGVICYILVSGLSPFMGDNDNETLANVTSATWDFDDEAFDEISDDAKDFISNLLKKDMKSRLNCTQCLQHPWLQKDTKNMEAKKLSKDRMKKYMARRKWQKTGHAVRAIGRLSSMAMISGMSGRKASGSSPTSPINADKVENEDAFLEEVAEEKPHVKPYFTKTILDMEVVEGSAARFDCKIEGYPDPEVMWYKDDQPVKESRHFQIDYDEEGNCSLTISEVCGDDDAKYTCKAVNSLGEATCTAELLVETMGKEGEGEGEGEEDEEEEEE

Turning to `Cn1c2ccccc2c2c3c(c4c5ccccc5n(CCC#N)c4c21)C(=O)NC3=O` [Example 1a, 12-(2-cyanoethyl)-6,7,12,13-tetrahydro-13-methyl-5,7-dioxo-5H-indolo[2,3-a]pyrrolo[3,4-c]carbazole], the IC50 in experiment [1] was found to be 38 nM; in experiment [2] (setting [3]), 55 nM. Moreover, the “ratio of IC50 C-kinase/IC50 MLC-kinase” value in experiment [2] is 0.7.
The matching figures for `COc1ccc2c3c4c(c5c6ccccc6n(C)c5c3n(CCC#N)c2c1)C(=O)NC4=O` [Example 1u, 13-(2-cyanoethyl)-6,7,12,13-tetrahydro-2-methoxy-12-methyl-5,7-dioxo-5H-indolo[2,3-a]pyrrolo[3,4-c]-carbazole]: 4700 nM, 540 nM and 8.7.
For the compound “12-(3-dimethylaminopropyl)-6,7,12,13-tetrahydro-3(9)-hydroxy-9(3)-methoxy- 5,7-dioxo-5H-indolo[2,3-a]pyrrolo[3,4-c]carbazole [Example 2d]”, the IC50 in experiment [1] stood at 38 nM; in experiment [2] (setting [3]), 16 nM. The “ratio of IC50 C-kinase/IC50 MLC-kinase” value in experiment [2] is 2.4.
In the case of `O=C1NC(=O)c2c1c1c3ccccc3[nH]c1c1[nH]c3ccccc3c21` [Example 11a, 6,7,12,13-tetrahydro-5,7-dioxo-5H-indolo[2,3-a]pyrrolo[3,4-c]carbazole], the IC50 in experiment [1] came out at 1900 nM. Moreover, in experiment [2], 420 nM corresponded to half-maximal inhibition (IC50) and the “ratio of IC50 C-kinase/IC50 MLC-kinase” value is on record as 4.5.
As for `COc1ccc2c(c1)c1c3c(c4c5ccccc5n(C)c4c1n2CCCN(C)C)C(=O)NC3=O` [Example 1k, 13-(3-Dimethylaminopropyl)-6,7,12,13-tetrahydro-3-methoxy-12-methyl-5,1-dioxo-5H-indolo[2,3-a]pyrrolo-[3,4-c]carbazole], the IC50 in experiment [1] was determined as 440 nM; in experiment [2] (setting [3]), 61 nM. In experiment [2], the “ratio of IC50 C-kinase/IC50 MLC-kinase” value is on record as 7.2.
Take `COc1ccc2c(c1)c1c3c(c4c5cc(OC)c(OC)cc5n(CCC#N)c4c1n2C)C(=O)NC3=O` [Example 1s, 13-(2-cyanoethyl)-6,7,12,13-tetrahydro-2,3,9-trimethoxy-12-methyl-5,7-dioxo-5H-indolo[2,3-a]pyrrolo-[3,4-c]carbazole]: the figures for the half-maximal inhibitory concentration (IC50) in experiment [1] and in experiment [2] (setting [3]) were 24 nM and 33 nM, respectively. Besides, in experiment [2], the “ratio of IC50 C-kinase/IC50 MLC-kinase” value is on record as 0.7.
On to `COc1cc2c3c4c(c5c6ccccc6n(C)c5c3n(CCC#N)c2cc1OC)C(=O)NC4=O` [Example 1o, 13-(2-cyanoethyl)-6,7,12,13-tetrahydro-2,3-dimethoxy-12-methyl-5,7-dioxo-5H-1-indolo[2,3-a]pyrrolo-[3,4-c]carbazole], for which the IC50 in experiment [1] was determined as 6.7 nM; in experiment [2] (setting [3]), 17 nM. The “ratio of IC50 C-kinase/IC50 MLC-kinase” value in experiment [2] is 0.4.
In the case of `COc1ccc2c(c1)c1c3c(c4c5cc(Cl)ccc5n(CCC#N)c4c1n2C)C(=O)NC3=O` [Example 1n, 3-chloro-13-(2-cyanoethyl)-6,7,12,13-tetrahydro-9-methoxy-12-methyl-5,7-dioxo-5H-indolo[2,3-a]pyrrolo-[3,4-a]carbazole], the IC50 is 20 nM in experiment [1] and 32 nM in experiment [2] (setting [3]). In addition, the “ratio of IC50 C-kinase/IC50 MLC-kinase” value in experiment [2] is 0.6.
In the case of `COc1ccc2[nH]c3c(c4c(c5c6cc(OC)ccc6n(CCCN(C)C)c35)C(=O)NC4=O)c2c1` [Example 7, 12-(3-Dimethylaminopropyl)-6,7,12,13-tetrahydro-3,9-dimethoxy-5,7-dioxo-5H-indolo[2,3-a]pyrrolo[3,4-c]-carbazole], the IC50 in experiment [1] came out at 380 nM; in experiment [2] (setting [3]) it was 40 nM. In addition, the “ratio of IC50 C-kinase/IC50 MLC-kinase” value in experiment [2] was 9.5.
Turning to `Cn1c2ccccc2c2c3c(c4c5ccccc5n(CCCN)c4c21)C(=O)NC3=O` [Example 4, 12-(3-Aminopropyl)-6,7,12,13-tetrahydro-13-methyl-5,7-dioxo-5H-indolo[2,3-a]pyrrolo[3,4-c]carbazole], the values for the IC50 in experiment [1] and in experiment [2] (setting [3]) were 39 nM and 1.2 nM, respectively. Also, the “MLC kinase inhibition, in words” value in experiment [2] (potency and selectivity vs protein kinase C) was “potent and selective inhibitors of MLC kinase”. Moreover, in experiment [2], the “ratio of IC50 C-kinase/IC50 MLC-kinase” value was 33.
Consider `COc1ccc2c(c1)c1c3c(c4c5ccccc5n(C)c4c1n2CC(O)CN(C)C)C(=O)NC3=O` (racemic) [Example 10b, (±)-13-(3-dimethylamino-2-hydroxy-1-propyl)-6,7,12,13-tetrahydro-3-methoxy-12-methyl-5,7-dioxo-5H-indolo[2,3-a]pyrrolo[3,4-c]carbazole], for which the IC50 worked out at 4 nM in experiment [1] and 120 nM in experiment [2] (setting [3]). The “ratio of IC50 C-kinase/IC50 MLC-kinase” value in experiment [2] is on record as 0.033.
`COc1ccc2[nH]c3c4[nH]c5ccccc5c4c4c(c3c2c1)C(=O)NC4=O` [Example 11b, 6,7,12,13-tetrahydro-3-methoxy-5,7-dioxo-5H-indolo[2,3-a]pyrrolo[3,4-c]carbazole]: the results for the IC50 in experiment [1] and in experiment [2] (setting [3]) were 280 nM and 60 nM, respectively. For the same compound, in experiment [2], the “ratio of IC50 C-kinase/IC50 MLC-kinase” value is listed as 4.7.
The matching figures for `CN(C)CCCn1c2ccccc2c2c3c(c4c5ccccc5n(C)c4c21)C(=O)NC3=O` [Example 1j, 12-(3-dimethylaminopropyl)-6,7,12,13-tetrahydro-13-methyl-5,7-dioxo-5H-indolo[2,3-a]pyrrolo[3,4-c]-carbazole]: 500 nM, 45 nM and 11.1.
Take `O=C1NC(=O)c2c1c1c3ccccc3[nH]c1c1c2c2ccccc2n1CC(O)CO` (stereo not shown) [Example 8, 12-(2,3-Dihydroxy-1-propyl)-6,7,12,13-tetrahydro-5,7-dioxo-5H-indolo[2,3-a]pyrrolo[3,4-c]carbazole]: the IC50 worked out at 59 nM in experiment [1] and 5.2 nM in experiment [2] (setting [3]). Moreover, in experiment [2], the “ratio of IC50 C-kinase/IC50 MLC-kinase” value was 11.3.
For `COc1ccc2c(c1)c1c3c(c4c5cc(OC)ccc5n(CCCC#N)c4c1n2C)C(=O)NC3=O` [Example 1r, 12-(3-cyanopropyl)-6,7,12,13-tetrahydro-3,9-dimethoxy-13-methyl-5,7-dioxo-5H-indolo[2,3-a]pyrrolo-[3,4-c]carbazole] the same measures were 17 nM, 29 nM and 0.6.
For `O=C1NC(=O)c2c1c1c3cc(O)ccc3[nH]c1c1[nH]c3ccc(O)cc3c21` [Example 2e, 6,7,12,13-tetrahydro-3,9-dihydroxy-5,1-dioxo-5H-indolo[2,3-a]pyrrolo[3,4-c]carbazole] the same measures were 7 nM, 5.7 nM and 1.3.
For the compound `COc1ccc2[nH]c3c(c4c(c5c6ccccc6n(C)c35)C(=O)NC4=O)c2c1` [Example 7d, 6,7,12,13-tetrahydro-3-methoxy-12-methyl-5,7-dioxo-5H-indolo[2,3-a]pyrrolo[3,4-c]carbazole], the IC50 in experiment [1] stood at 25 nM; in experiment [2] (setting [3]) it was 8.4 nM. Besides, the “ratio of IC50 C-kinase/IC50 MLC-kinase” value in experiment [2] is on record as 3.0.
As for `O=C1NC(=O)c2c1c1c3cc(Br)ccc3[nH]c1c1[nH]c3ccc(Br)cc3c21` [Example 11g, 3,9-dibromo-6,7,12,13-tetrahydro-5,7-dioxo-5H-indolo[2,3-a]pyrrolo[3,4-c]carbazole], the IC50 in experiment [1] turned out to be 4600 nM; in experiment [2] (setting [3]), 370 nM. In experiment [2], the “ratio of IC50 C-kinase/IC50 MLC-kinase” value was 12.
For `CN(C)CCn1c2ccccc2c2c3c(c4c5ccccc5n(C)c4c21)C(=O)NC3=O` [Example 1x, 12-(2-dimethylaminoethyl)-6,7,12,13-tetrahydro-13-methyl-5,7-dioxo-5H-indolo[2,3-a]pyrrolo[3,4-c]carbazole], the values for the half-maximal inhibitory concentration (IC50) in experiment [1] and in experiment [2] (setting [3]) were 52 nM and 7.2 nM, respectively. Further, in experiment [2], the “ratio of IC50 C-kinase/IC50 MLC-kinase” value is given as 7.2.
As for `Cn1c2ccccc2c2c3c(c4c5ccccc5n(CCC[N+](C)(C)C)c4c21)C(=O)NC3=O` [Example 3, 12-(3-Dimethylaminopropyl)-6,7,12,13-tetrahydro-13-methyl-5,7-dioxo-5H-indolo[2,3-a]pyrrolo[3,4-c]-carbazole; methiodide], the IC50 stood at 190 nM in experiment [1] and 76 nM in experiment [2] (setting [3]). The “ratio of IC50 C-kinase/IC50 MLC-kinase” value in experiment [2] is 2.5.
Consider `CN(C)CCCn1c2ccccc2c2c3c(c4c5ccccc5[nH]c4c21)C(=O)NC3=O` [Example 7a, 13-(3-dimethylaminopropyl)-6,7,12,13-tetrahydro-5,7-dioxo-5H-indolo[2,3-a]pyrrolo[3,4-c]carbazole], for which the IC50 was found to be 530 nM in experiment [1] and 52 nM in experiment [2] (setting [3]). The “ratio of IC50 C-kinase/IC50 MLC-kinase” value in experiment [2] is given as 10.
The matching figures for `Cn1c2ccc(O)cc2c2c3c(c4c5ccccc5n(CCC#N)c4c21)C(=O)NC3=O` [Example 2a, 12-(2-cyanoethyl)-6,7,12,13-tetrahydro-3-hydroxy-13-methyl-5,7-dioxo-5H-indolo[2,3-a]pyrrolo[3,4-c]-carbazole]: 31 nM, 18 nM and 1.7.
Turning to `CCN(CC)CC(O)Cn1c2ccccc2c2c3c(c4c5ccccc5[nH]c4c21)C(=O)NC3=O` (racemic) [Example 6, (±)-12-(3-Diethylamino-2-hydroxy-1-propyl)-6,7,12,13-tetrahydro-5,7-dioxo-5H-indolo[2,3-a]pyrrolo[3,4-c]-carbazole], the IC50 was 500 nM in experiment [1] and 170 nM in experiment [2] (setting [3]). The “ratio of IC50 C-kinase/IC50 MLC-kinase” value in experiment [2] is 2.9.
For `CCN(CC)CC(O)Cn1c2ccccc2c2c3c(c4c5ccccc5n(C)c4c21)C(=O)NC3=O` (racemic) [Example 10a, (±)-12-(3-diethylamino-2-hydroxy-1-propyl)-6,7,12,13-tetrahydro-13-methyl-5,7-dioxo-5H-indolo-[2,3-a]pyrrolo[3,4-c]carbazole] the same measures were 120 nM, 370 nM and 0.3.
